Assay results: US20030100024A1, “Method and apparatus for high throughput cell-based assays for screening and diagnostics” (priority 2000, published 2003)

Tested on: PC12 cells
Experiment: neurite outgrowth from PC12 cells measured by laser scanning line amplitudes
Assay type: cell-based
Conditions: NGF added, after six days, FIG. 5
Description: The method of the invention was applied to the measurement of neurite outgrowth from PC12 cells. The neurites are much smaller than the cells and the laser beam, being only one micron in diameter in some cases. […] The extent of differentiation can be measured by considering the characteristic gaussian fit, multi-peaks ratio, sample width and number of inflections of the line amplitudes of the two populations. Any combination of these measurements from the line amplitudes may be used as a quantitative measure of differentiation.
If the line-to-line spacing of the scan is sufficiently small it is also possible to produce a representation of each cell in 3D (FIG. 6). This provides confirmation of the ability of the method to characterise differentiation.

nerve growth factor [NGF]
differentiation (neurite outgrowth) of the cell population: the majority differentiated with neurite outgrowths
